Patent US20160047819A1, “METHOD FOR DIAGNOSING VAGINAL INFECTIONS” (priority 2013, published 2016)

Tested on: microbial proteins in vaginal fluid
Assay: MS/MS proteomic analysis of vaginal fluid pools before and after rifaximin/placebo treatment: microbial proteins
Assay type: in vivo
Protocol: Proteomic analysis was performed on 9 pools of vaginal isolates, grouped according to the status of the BV infection: • H pool (from 41 healthy women); BV pool (from 39 BV-affected women); • A-R pool (from 2 women who were in remission after rifaximin treatment-group A); • A-N pool (from 8 women who were not in remission after rifaximin treatment-group A); • B-R pool (from 5 women who were in remission after rifaximin treatment-group B); • B-N pool (from 5 women who were not in remission after rifaximin treatment-group B); • C-R pool (from 4 women who were in remission after rifaximin treatment-group C); • C-N (from 5 women who were not in remission after rifaximin treatment-group C); • D-N (from 10 women who were not in remission after placebo treatment-group D). Scheme of the vaginal fluids collected for testing the diagnostic method is represented in FIG. 1.
In these figures are reported the peptides in the fractionated pools of healthy women, women affected by BV and peptides of women treated with rifaximin. The treatment with rifaximin was at dosage of 100 mg/day for 5 days; (remission, A-R; no remission, A-N), 25 mg/5 days (remission, B-R; no remission, B-N), 100 mg/2 days (remission, C-R; no remission, C-N), and placebo for 5 days (D-N). Two types of comparisons were carried out: (i) between fractionated pools of proteins from vaginal fluid of healthy women (HF) versus fractionated pool of proteins from vaginal fluid of women affected by bacterial vaginosis (BVF); (ii) between whole pools of proteins from vaginal fluid of women affected by BV treated by administering different doses of rifaximin or placebo before (BV) and after (A-R, A-N, B-R, B-N, C-R, C-N, D-N) treatment. Fractioned pools of proteins are obtained, e.g., by separating the proteins by separation on membrane filtration with different membrane porosity, prior to MS/MS analysis.
Nine volumes of acetone: HCl (10:1) were added to the supernatant of the vaginal rinsing and proteins were precipitated by centrifuging at 12000 g for 10 min. The protein pellet was dissolved in 1 mL of 70% ethanol and the sample was spun at 12000 g for 10 min. One mL of acetone was added and the proteins were further precipitated by centrifugation at 12000 g for 5 min. After removing supernatant, pellet was dried by SpeedVac concentrator (Thermo Savant ISS110, Thermo Fisher Scientific, Waltham, Mass.) and then stored at −20° C.
Protein extract was quantified using the 2-D Quant Kit (GE Healthcare, Uppsala, Sweden) according to the manufacturer's instructions.
Patients who were diagnosed for BV at the study visit V1 were included in a multicentre, double-blind, randomised, placebo-controlled study (EudraCT: 2009-011826-32), that was performed to compare the efficacy of different doses of rifaximin vaginal tablets versus placebo for the treatment of BV. The patients underwent a randomisation visit and were distributed into 4 treatment groups: group A received 100 mg rifaximin vaginal tablet once daily for 5 days (n=10), group B received 25 mg rifaximin vaginal tablet once daily for 5 days (n=10), group C received 100 mg rifaximin vaginal tablet once daily for the first 2 days and placebo vaginal tablet for the remaining 3 days (n=9), group D received placebo vaginal tablet once daily for 5 days (n=10). Study medication was administered intra-vaginally at bedtime. After 7 to 10 days from the end of the therapy a follow-up visit (V3) was performed. Remission was evaluated at V3 according to Amsel's criteria (<3) and Gram stain Nugent score (≦3) (Table 1).
Standardized vaginal rinsings with 2 mL of saline were collected for analysis at V1 and V3 by flushing and re-aspirating the fluid through a 22 Gauge needle in the left, central and right upper vaginal vaults. The vaginal rinsings were subsequently stored at −80° C. until use.
MS/MS analysis was carried out for H and BV pools and for the whole BV, A-R, A-N, B-R, B-N, C-R, C-N and D-N pools containing 50 μg of protein each. […]

[1] = up-regulated in all pools (rifaximin and placebo) vs BV

## CO[C@H]1/C=C/O[C@@]2(C)Oc3c(C)c(O)c4c(O)c(c5c(nc6cc(C)ccn65)c4c3C2=O)NC(=O)/C(C)=C\C=C\[C@H](C)[C@H](O)[C@@H](C)[C@@H](O)[C@@H](C)[C@H](OC(C)=O)[C@@H]1C [rifaximin]
A-R pool, over-expressed in A-N, B-R, C-R and D-N pools
  fold change of Phosphoglycerate kinase from L. gasseri: −22.1 fold
Affected only in A-R pool
  expression change of Pyruvate kinase from L. delbrueckii subsp. bulgaricus: 1.5 ratio
Affected only in B-N pool
  expression change of Triosephosphate isomerase from L. delbrueckii subsp. bulgaricus: 2.4 ratio
down-regulated in all pools after rifaximin treatment
  median expression change of trigger factor from L. brevis: −2.5 ratio
Pool A-N after treatment
  Ratio X/H Ribosome-recycling factor OS = Bifidobacterium longum subsp. infantis (B7GQS1): −1.2
  Ratio X/H Trigger factor OS = Lactobacillus brevis (Q03QN6): −2.4
  Ratio X/H Triosephosphate isomerase OS = Lactobacillus delbrueckii subsp. bulgaricus (Q1GB25): −1.2
  Ratio X/H UPF0082 protein SAB0618 OS = Staphylococcus aureus (Q2YSR2): 5.6
  Ratio X/H Uncharacterized membrane protein YAL018C OS = Saccharomyces cerevisiae (P31379): 2.0
  Ratio X/H Uncharacterized protein yphG OS = Escherichia coli (P76585): −4.3
Pool A-R after treatment
  Ratio X/H Ribosome-recycling factor OS = Bifidobacterium longum subsp. infantis (B7GQS1): −4.5
  Ratio X/H Trigger factor OS = Lactobacillus brevis (Q03QN6): −3.8
  Ratio X/H Triosephosphate isomerase OS = Lactobacillus delbrueckii subsp. bulgaricus (Q1GB25): −1.3
  Ratio X/H UPF0082 protein SAB0618 OS = Staphylococcus aureus (Q2YSR2): 9.3
  Ratio X/H Uncharacterized membrane protein YAL018C OS = Saccharomyces cerevisiae (P31379): 1.1
  Ratio X/H Uncharacterized protein yphG OS = Escherichia coli (P76585): 1.1
Pool B-N after treatment
  Ratio X/H Ribosome-recycling factor OS = Bifidobacterium longum subsp. infantis (B7GQS1): −1.1
  Ratio X/H Trigger factor OS = Lactobacillus brevis (Q03QN6): −2.1
  Ratio X/H Triosephosphate isomerase OS = Lactobacillus delbrueckii subsp. bulgaricus (Q1GB25): 2.4
  Ratio X/H UPF0082 protein SAB0618 OS = Staphylococcus aureus (Q2YSR2): 9.2
  Ratio X/H Uncharacterized membrane protein YAL018C OS = Saccharomyces cerevisiae (P31379): 2.0
  Ratio X/H Uncharacterized protein yphG OS = Escherichia coli (P76585): −1.1
Pool B-R after treatment
  Ratio X/H Ribosome-recycling factor OS = Bifidobacterium longum subsp. infantis (B7GQS1): −2.4
  Ratio X/H Trigger factor OS = Lactobacillus brevis (Q03QN6): −2.2
  Ratio X/H Triosephosphate isomerase OS = Lactobacillus delbrueckii subsp. bulgaricus (Q1GB25): −1.2
  Ratio X/H UPF0082 protein SAB0618 OS = Staphylococcus aureus (Q2YSR2): 10.5
  Ratio X/H Uncharacterized membrane protein YAL018C OS = Saccharomyces cerevisiae (P31379): 2.9
  Ratio X/H Uncharacterized protein yphG OS = Escherichia coli (P76585): 1.1
Pool C-N after treatment
  Ratio X/H Ribosome-recycling factor OS = Bifidobacterium longum subsp. infantis (B7GQS1): 1.0
  Ratio X/H Trigger factor OS = Lactobacillus brevis (Q03QN6): −3.2
  Ratio X/H Triosephosphate isomerase OS = Lactobacillus delbrueckii subsp. bulgaricus (Q1GB25): −1.3
  Ratio X/H UPF0082 protein SAB0618 OS = Staphylococcus aureus (Q2YSR2): 5.9
  Ratio X/H Uncharacterized membrane protein YAL018C OS = Saccharomyces cerevisiae (P31379): 4.2
  Ratio X/H Uncharacterized protein yphG OS = Escherichia coli (P76585): −1.1
Pool C-R after treatment
  Ratio X/H Ribosome-recycling factor OS = Bifidobacterium longum subsp. infantis (B7GQS1): −2.8
  Ratio X/H Trigger factor OS = Lactobacillus brevis (Q03QN6): −2.7
  Ratio X/H Triosephosphate isomerase OS = Lactobacillus delbrueckii subsp. bulgaricus (Q1GB25): −1.4
  Ratio X/H UPF0082 protein SAB0618 OS = Staphylococcus aureus (Q2YSR2): 8.9
  Ratio X/H Uncharacterized membrane protein YAL018C OS = Saccharomyces cerevisiae (P31379): −1.6
  Ratio X/H Uncharacterized protein yphG OS = Escherichia coli (P76585): 1.0
Pools after treatment vs BV
  median down-regulation of Malate dehydrogenase from S. cerevisiae: −2.3 fold
Trend of down-regulation in response to antibiotic administration
  median expression change of enolases from L. acidophilus, L. delbrueckii subsp. bulgaricus, L. gasseri: −2.7 ratio
[1]
  median expression change of Phosphoglycerate kinase from U. parvum: 5.1 ratio
  median expression change of UPF0082 protein SAB0618 from S. aureus: 8.9 ratio
